The nature of data set [1]: Peptide stability in simulated intestinal fluid (SIF). In kind it is in vitro ADME. Particulars: 37 °C, porcine pancreatin. The method, boiled down:
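Peptides were incubated at 37 °C with gentle shaking in pH 6.8 potassium phosphate SIF containing porcine pancreatin (10 g/L). Supernatants were analysed by LC-HRMS. Percent remaining at each timepoint, including 4 h, was calculated relative to time zero from absolute peak areas.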

For data set [2], the target named is T1, human IL-23R (Homo sapiens, UniProt Q5VWK5).
T1 sequence (Q5VWK5 22-629): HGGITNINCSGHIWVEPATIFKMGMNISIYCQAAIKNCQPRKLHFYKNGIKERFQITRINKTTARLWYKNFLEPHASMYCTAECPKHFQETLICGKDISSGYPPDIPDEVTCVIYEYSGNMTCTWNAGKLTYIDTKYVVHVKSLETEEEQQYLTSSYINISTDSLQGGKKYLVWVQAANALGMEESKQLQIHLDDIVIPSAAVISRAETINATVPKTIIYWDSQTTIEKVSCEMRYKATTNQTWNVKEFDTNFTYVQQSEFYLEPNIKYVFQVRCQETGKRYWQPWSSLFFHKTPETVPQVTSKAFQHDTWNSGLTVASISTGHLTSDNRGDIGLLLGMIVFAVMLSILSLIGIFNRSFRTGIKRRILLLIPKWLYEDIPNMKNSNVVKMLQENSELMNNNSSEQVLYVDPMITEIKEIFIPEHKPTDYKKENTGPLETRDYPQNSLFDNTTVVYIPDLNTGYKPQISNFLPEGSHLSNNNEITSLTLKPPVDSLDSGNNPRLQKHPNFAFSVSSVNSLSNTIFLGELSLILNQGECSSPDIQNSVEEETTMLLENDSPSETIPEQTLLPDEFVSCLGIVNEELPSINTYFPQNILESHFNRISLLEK
Put plainly: biochemical. The method, boiled down:
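BRET displacement of a TAMRA-labelled reference compound from N-terminal Nanoluc-IL-23R fusion protein in membranes from stably transfected HEK293 cells. Incubation 2 h at room temperature, then Nanoluc substrate was added and the TAMRA/Nanoluc ratio read. IC50 and maximal displacement came from 4-parameter logistic fits.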

pIC50: −log10 of the molar value.

Regarding `CC(C)C[C@]1(C)NC(=O)[C@H](Cc2ccc3ccccc3c2)NC(=O)[C@H](Cc2ccc(OCCN)cc2)NC(=O)[C@@H]2CCC(=O)N[C@H](CCCCNC(=O)CC[C@@H](C(=O)N[C@@H](CCN)C(=O)N[C@@H](Cc3cccnc3)C(N)=O)NC1=O)C(=O)N[C@@H]([C@@H](C)O)C(=O)N[C@@H](C(C)C)C(=O)N[C@@H](Cc1c[nH]c3ccccc13)C(=O)N[C@@H](CCC(N)=O)C(=O)N2` [Compound 1, [{d}K](1c)(6c)^†TVWQE(6c)[Y(2-aminoethoxy)][2-Nal][2-Me-Leu]E(1c)[Dab][3-(3-Pyridyl)-Ala]-[NH2]], the “SIF (% remaining 4 h)” value in data set [1] (10 µM, pH 6.8, 4 h) is reported as 0%. In data set [1] (pig, pH 6.8, 1 h), this molecule showed a remaining at 1 h, 10 µM of 23%. Besides, in data set [1] (pig, SAR tables, % peptide remaining, pH 6.8, 4 h, read-out: SIF (% after 4 h)), the remaining at 4 h, 10 µM was 0%. In addition, in data set [2], the “% displacement (hIL-23R NIuc)” value is recorded as 103% and the pIC50 (usually the negative decadic logarithm of the IC50, by convention in mol/L) was 10.40.

Values taken from patent publication EP4471048A1, “PEPTIDE INHIBITORS OF INTERLEUKIN-23 RECEPTOR” (Zealand Pharma A/S, priority 2023, dated 2024).
